Type in all cases: binding
For experiment [1], the target named is T1, NadR (Neisseria adhesin A Regulator) (Neisseria meningitidis, UniProt Q7DD70). Put plainly: SPR steady-state; DSC (ΔTm […] °C). Also on record: gene NMB1843; NadR residues M1-S146, His-tag removed by thrombin (149 residues).
The target of experiment [2] is T1, NadR (Neisseria adhesin A Regulator). Put plainly: SPR steady-state; DSC (ΔTm […] °C). Also on record: gene NMB1843; NadR residues M1-S146, His-tag removed by thrombin (149 residues). This is another data set of the same source.
The target is the same in experiment [3]. In words: SPR steady-state; DSC; 1H-15N TROSY-HSQC NMR. Also on record: gene NMB1843; NadR residues M1-S146, His-tag removed by thrombin (149 residues); SeMet derivative for the crystal.

T1 sequence (Q7DD70 entry or part of it): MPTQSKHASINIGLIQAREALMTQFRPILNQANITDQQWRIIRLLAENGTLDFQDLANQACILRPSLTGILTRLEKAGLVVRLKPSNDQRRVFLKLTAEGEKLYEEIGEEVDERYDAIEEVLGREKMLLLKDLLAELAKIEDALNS

As for `O=C(O)Cc1cccc(O)c1` [3-HPA], in experiment [1], the dissociation constant Kd was found to be 2700 ± 100 µM. Take `O=C(O)Cc1ccc(O)c(Cl)c1` [3Cl,4-HPA]: the Kd in experiment [2] was 1100 ± 100 µM. Compound `O=C(O)Cc1ccc(O)cc1` [4-HPA, 4-hydroxyphenylacetate] came in with a Kd in experiment [3] of 1500 ± 100 µM.

A word on the Kd: it is a measure of binding affinity in units of concentration. Higher therefore signals lower affinity.

The values are drawn from PMC4841544, “Molecular Basis of Ligand-Dependent Regulation of NadR, the Transcriptional Repressor of Meningococcal Virulence Factor NadA” (PLoS Pathogens, 2016).
